In article PMC9186373, “Design, synthesis, and biological evaluation of novel carbazole derivatives as potent DNMT1 inhibitors with reasonable PK properties” (Journal of Enzyme Inhibition and Medicinal Chemistry, 2022):

Key:
PK study in SD rats = format: in vivo; settings: rat, plasma, SD male rats; for AUC(0-t) / Tmax / half-life: mean ± SD (n = 3); for bioavailability: p.o. 10 mg/kg vs i.v. 2 mg/kg, F = (AUC p.o. × Dose i.v.)/(AUC i.v. × Dose p.o.) × 100%
Experimental: In vivo pharmacokinetic properties of WK-22, WK-23, WK-27, and DC_517 were performed by Medicilon Company, Shanghai, China. SPF-grade SD male rats (8 groups, n = 3 rats per group) with a body weight of 230–260 g were purchased from Shanghai SIPPR-BK LAB Animal Ltd., Shanghai, China, and used for the pharmacokinetic analysis of the tested compounds. All animals were deprived of food overnight after the cannulation surgery. Subsequently, the tested compounds WK-23 and DC_517 were dissolved/suspended in 5% DMSO, 10% Solutol, and 85% water, and the tested compounds WK-22 and WK-27 were dissolved/suspended in 5% DMSO, 40% PEG400, and 55% saline for intravenous administration (i.v.) and oral administration (p.o.), respectively. A final dosage of 2.0 and 10.0 mg/kg rat of the formulated compounds was administered for i.v. and p.o. purposes, respectively, and the blood samples were taken at various time points during a 24 h period. At different time points, blood samples were collected from the femoral vein. The plasma samples were obtained after centrifugation (6800 g, 6 min, 2–8 °C) and stored at −80 °C until the assay. The AUC (area under concentration-time curve) was calculated through the trapezoidal rule with extrapolation to time infinity. The concentration of the compounds in the blood was analysed by LC-MS/MS (Shimadzu liquid chromatographic system and SCIEX Triple Quad 5500+ mass spectrometer, Applied Biosystems, Ontario, Canada). The Tmax, T1/2, and Cmax value was obtained through visual inspection of the plasma concentration-time curve. The Vss value was generated from DAS 3.2.8 software. The F value of WK-23 was calculated with the formula: F = (AUC p.o. × Dose i.v.)/(AUC i.v. × Dose p.o.) × 100%.

DNMT1 = DNMT1 (Homo sapiens, UniProt P26358); test: H3-labelled radioactive methylation assay; format: biochemical; settings: H3-labeled radioactive methylation assay; 40 nM DNMT1
DNMT1, sequence (P26358 whole entry): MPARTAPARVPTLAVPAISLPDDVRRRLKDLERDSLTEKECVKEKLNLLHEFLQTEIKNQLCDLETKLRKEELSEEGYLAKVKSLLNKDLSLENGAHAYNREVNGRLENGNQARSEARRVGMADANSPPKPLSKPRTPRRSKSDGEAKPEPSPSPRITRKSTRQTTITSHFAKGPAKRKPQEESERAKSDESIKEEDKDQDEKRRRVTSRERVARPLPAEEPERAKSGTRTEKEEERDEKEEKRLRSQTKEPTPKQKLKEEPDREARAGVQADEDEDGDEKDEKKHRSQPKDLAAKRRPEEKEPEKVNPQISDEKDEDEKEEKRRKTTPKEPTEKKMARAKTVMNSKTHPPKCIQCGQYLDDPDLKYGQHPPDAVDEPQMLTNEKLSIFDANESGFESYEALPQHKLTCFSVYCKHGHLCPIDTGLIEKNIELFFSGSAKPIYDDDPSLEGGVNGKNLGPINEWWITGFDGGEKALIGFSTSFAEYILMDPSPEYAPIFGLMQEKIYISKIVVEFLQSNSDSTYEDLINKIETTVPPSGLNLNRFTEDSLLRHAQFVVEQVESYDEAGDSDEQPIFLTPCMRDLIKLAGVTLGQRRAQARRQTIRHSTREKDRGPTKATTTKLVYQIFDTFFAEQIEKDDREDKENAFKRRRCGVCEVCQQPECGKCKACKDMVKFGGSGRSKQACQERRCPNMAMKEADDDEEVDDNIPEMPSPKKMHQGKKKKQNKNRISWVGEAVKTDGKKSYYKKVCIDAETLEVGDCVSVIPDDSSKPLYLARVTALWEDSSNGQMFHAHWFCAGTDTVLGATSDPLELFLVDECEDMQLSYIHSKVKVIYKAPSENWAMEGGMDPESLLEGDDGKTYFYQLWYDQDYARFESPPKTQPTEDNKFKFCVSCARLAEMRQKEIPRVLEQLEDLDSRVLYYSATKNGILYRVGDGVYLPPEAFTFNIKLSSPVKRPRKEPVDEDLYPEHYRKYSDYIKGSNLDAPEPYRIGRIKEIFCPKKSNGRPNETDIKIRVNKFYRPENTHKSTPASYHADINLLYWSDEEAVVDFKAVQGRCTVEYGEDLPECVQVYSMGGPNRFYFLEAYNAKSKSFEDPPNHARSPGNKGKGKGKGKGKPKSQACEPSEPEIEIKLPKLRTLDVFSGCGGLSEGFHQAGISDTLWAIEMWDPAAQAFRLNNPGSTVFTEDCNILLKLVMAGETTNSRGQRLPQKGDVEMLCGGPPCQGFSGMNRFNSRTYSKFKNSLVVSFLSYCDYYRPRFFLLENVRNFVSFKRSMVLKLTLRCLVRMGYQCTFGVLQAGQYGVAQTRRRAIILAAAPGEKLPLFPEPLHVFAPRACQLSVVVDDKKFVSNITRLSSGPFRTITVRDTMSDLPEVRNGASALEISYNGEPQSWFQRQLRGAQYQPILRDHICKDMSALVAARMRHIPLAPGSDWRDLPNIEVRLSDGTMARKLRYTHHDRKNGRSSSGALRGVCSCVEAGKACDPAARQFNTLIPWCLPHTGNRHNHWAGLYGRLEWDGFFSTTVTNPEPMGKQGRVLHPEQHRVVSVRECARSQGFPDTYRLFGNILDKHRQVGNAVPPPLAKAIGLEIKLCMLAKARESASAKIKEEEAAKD
In short: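 DNMT1 (40 nM) was preincubated with a compound range for 15 min at room temperature, then given 0.1 µM ^3H-SAM and 0.25 µg/mL poly(dI-dC)·poly(dI-dC) in 50 mM Tris-HCl pH 8.0, 1 mM DTT, 5% glycerol, 100 µg/mL BSA. After 60 min at 37 °C, filter-bound radioactivity was counted by scintillation. IC50 was taken from a non-linear dose-response fit.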

LSD1 = test: Methylation inhibition assay (AlphaLisa), LSD1; format: biochemical; settings: 1 - selected enzyme inhibition/DNMT1 inhibition; 50 µM
Experimental: (§1) All the compounds were first screened using an ELISA EpiQuik DNA methyltransferase (DNMT) activity/inhibitor assay kit (Epigentek). To measure the effects of the compounds on human DNMT1 activity, 200 nM purified DNMT1 was incubated with 50 µM and 100 µM of the different compounds and S-adenosylmethionine in the DNMT assay buffer in the assay plate at 37 °C for 2 h[36]. Next, every sample was incubated with the capture and detection antibody, followed by incubation with developer solution for 10 min at room temperature. The absorbance was measured at 450 nm using a POLARstar Omega microplate reader (BMG). S-Adenosylhomocysteine (AdoHcy) was used as a positive control. Methylation inhibition assays for EZH2, LSD, and G9a were performed in modified Tris, pH 9.0, buffer using AlphaLisa technology. An amount of 10 µL of the reaction system contained a corresponding concentration of SAM (Sigma) (EZH2 50 µM, LSD 50 µM, and G9a 50 µM), which was the Km value in each enzymatic reaction, plus 100 nM biotinylated peptide H3 (1–21) (synthesis by GLChina) and the relevant enzyme concentration (0.03 nM EZH2, 0.03 nM LSD, and 0.03 nM G9a). The proteins were preincubated with various compound concentrations for 15 min at room temperature before the substrate and SAM were added. After 60 min of incubation at room temperature, acceptor and donor AlphaLisa beads were added according to the manufacturer’s recommendations. The signals were read in Alpha mode with an EnSpire multimode plate reader (PerkinElmer). IC50 values were derived by fitting the data for the inhibition percentage to a dose-response curve by non-linear regression in GraphPad Prism 5.0[20].
(§2) In addition to DNMT1, there are many other methyltransferases that can bind with S-adenosyl-L-methionine (SAM) to facilitate transmethylation reactions[24]^,[25]. To investigate the selectivity of these potent compounds for DNMT1, we then evaluated the inhibitory activities against DNMT1 and other important methyltransferases at the concentration of 50 µM, including DNMT3A/3L, DNMT3B/3L, and other SAM-dependent enzymes[1]^,[2]^,[26], such as EZH2[27], LSD1[28], G9a (histone H3 lysine 9 methyltransferase)[29].
(§3) 493 Relative selectivity index
(§4) 494 Relative selectivity index of DNMT1 is calculated by formula: DNMT1-selectivity
(§5) 495 index =1 - selected enzyme inhibition/DNMT1 inhibition. The closer
(§6) 496 that this value is to 1 or even more than 1, the better DNMT1-selectivity the of the
(§7) 498 Table S1. Relative selectivity index of DNMT1
Cpd. […]

DNMT3B/3L = test: Methyltransferase enzymatic selectivity profiling, DNMT3B/3L; format: biochemical; settings: 1 - selected enzyme inhibition/DNMT1 inhibition; 50 µM
Experimental: as §2
Here, the selectivity of non-nucleoside DNMT1 inhibitors is somewhat predictable because other methyltransferases mentioned above catalyse different substrates and share very low homology with DNMT1, even in their catalytic domain[30–32]. Subsequently, the screened compounds were evaluated in a dose-dependent assay against HCT116 (human colon cancer cell line) and A549 (human lung carcinoma cell line).
as §3, §4, §5, §6, §7
Cpd. […]

[1] = test system: G9a (histone H3 lysine 9 methyltransferase); test: Methylation inhibition assay (AlphaLisa), G9a; format: biochemical; settings: 50 µM; for inhibitory activity against G9a: Figure 3; for Relative selectivity index of DNMT1 vs G9a: 1 - selected enzyme inhibition/DNMT1 inhibition
Experimental: as §1, §2, §3, §4, §5, §6, §7
Cpd. […]

Row | AUC(0-t) (PK study in SD rats; iv, i.v. (2 mg/kg)) | Tmax (PK study in SD rats; iv, i.v. (2 mg/kg)) | half-life (PK study in SD rats; iv, i.v. (2 mg/kg)) | bioavailability (PK study in SD rats; po) | AUC(0-t) (PK study in SD rats; po, p.o. (10 mg/kg)) | Tmax (PK study in SD rats; po, p.o. (10 mg/kg)) | half-life (PK study in SD rats; po, p.o. (10 mg/kg)) | IC50 (DNMT1) | Relative selectivity index of DNMT1 vs DNMT 3B/3L (DNMT3B/3L) | inhibitory activity against G9a [1] | Relative selectivity index of DNMT1 vs G9a [1] | bioavailability (PK study in SD rats; oral) | SMILES | Relative selectivity index of DNMT1 vs LSD1 (LSD1)
1 | 1060 ± 121 ng·h/mL | 0.08 h | 7.9 ± 1 h | 37.1 ± 1.7% | 1970 ± 91.1 ng·h/mL | 6.7 ± 1.2 h | 6.5 ± 0.3 h | 5 µM | 0.02 | nearly no inhibitory activities | 0.89 |  | CC(C)NCC(O)COC(Cn1c2ccccc2c2cc(F)ccc21)Cn1c2ccccc2c2cc(F)ccc21 (stereo not shown) [WK-23, 1-((1,3-bis(3-fluoro-9H-carbazol-9-yl)propan-2-yl)oxy)-3-(isopropylamino)propan-2-ol] | 0.2
2 | 867 ± 15.9 ng·h/mL | 0.1 h | 12.2 ± 0.8 h | 27 ± 4.6% | 1170 ± 197 ng·h/mL | 7.3 ± 1.2 h | 8.8 ± 1.3 h | 4.9 µM | 0.03 | nearly no inhibitory activities | 0.9 | 27% | CC(C)NCC(O)COC(Cn1c2ccc(F)cc2c2cc(F)ccc21)Cn1c2ccc(F)cc2c2cc(F)ccc21 (stereo not shown) [WK-22, 1-((1,3-Bis(3,6-difluoro-9H-carbazol-9-yl)propan-2-yl)oxy)-3-(isopropylamino)propan-2-ol] | 0.02
